Values of other authors, collected in US20230255953A1, “USE OF ROLUPERIDONE IN PREVENTING RELAPSE IN SCHIZOPHRENIA PATIENTS” (Minerva Neurosciences, Inc., priority 2022, published 2023).
Where two headings read alike, the source gives them in different places.

What was measured:
chronic schizophrenia = details: Arato et al. 2002 (ZEUS), cited from earlier work
[1] = tested on: patients with schizophrenia; details: Durgam et al. 2016; cited from earlier work

| SMILES | Relapse rate after one year (chronic schizophrenia; 40 mg/day) [%] | Relapse rate after one year (chronic schizophrenia; 80 mg/day) [%] | Relapse rate after one year (chronic schizophrenia; 160 mg/day) [%] | Relapse rate [1] [%] |
| --- | --- | --- | --- | --- |
| O=C1Cc2cc(CCN3CCN(c4nsc5ccccc45)CC3)c(Cl)cc2N1 [ziprasidone] | 43 | 35 | 36 |  |
| CN(C)C(=O)N[C@H]1CC[C@H](CCN2CCN(c3cccc(Cl)c3Cl)CC2)CC1 [cariprazine] |  |  |  | 24.8 |
